These results are taken from patent US6242445A, “Benzimidazole derivative” (Kureha Chemical Industry Co., Ltd., priority 1998, dated 2001).

The subject of one data set is ICR female mice. Put plainly: Acute toxicity (single oral administration). Format: in vivo. How it is done: Acute toxicity was evaluated in this Example. As a compound to be examined, 2-ethoxy-1-[[4'-(2"-N,N-dimethylamino-ethoxycarbonyl)phenyl]methyl]-1H-benzimidazole-6-carboxylic acid morpholide (Compound No. 13) prepared in Example 6 was used.
Five-week-old ICR female mice (5 mice per group) were bredfor acclimation for a week. Then, Compound No. 13 was dissolved or suspended in 0.5% methylcellulose aqueous solution, and orally administered to the mice in a single dosage (500 mg/kg). […] Further, as to Compound No. 55, Compound No. 57, Compound No. 59, and Compound No. 65 prepared in Examples 26, 28, 31, and 23, respectively, acute toxicity was also evaluated.

In data set [1] the target is T1, angiotensin II receptor subtype 1 (AT1) (Oryctolagus cuniculus, UniProt P34976).
T1 construct: from adrenal glands in rabbits; from tissue; host or cells: adrenal glands of rabbits
T1 sequence (P34976 1-359): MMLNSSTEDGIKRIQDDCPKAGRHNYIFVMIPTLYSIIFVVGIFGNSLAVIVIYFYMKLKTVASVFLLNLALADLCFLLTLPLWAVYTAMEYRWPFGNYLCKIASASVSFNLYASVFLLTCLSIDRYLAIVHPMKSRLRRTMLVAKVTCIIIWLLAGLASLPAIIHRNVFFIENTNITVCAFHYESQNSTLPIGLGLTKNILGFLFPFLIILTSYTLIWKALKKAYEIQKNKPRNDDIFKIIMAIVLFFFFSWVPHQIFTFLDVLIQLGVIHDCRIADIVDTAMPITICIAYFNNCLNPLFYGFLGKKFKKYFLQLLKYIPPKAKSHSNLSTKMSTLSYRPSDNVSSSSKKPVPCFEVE
Put plainly: Binding assay, angiotensin II receptor subtype 1 (AT1). The arrangement: species or system rabbits. The protocol: In this Example, a binding assay was carried out. That is, the affinity to the angiotensin II receptor subtype 1 orsubtype 2 was evaluated in accordance with the method described in Biochem. Pharmacol., 33, 4057-4062 (1984).
Specifically, the measurement of the total binding in the presence of each drug was performed as follows:
A mixture (final volume=0.25 ml) of a drug in a given concentration (the drug was dissolved in DMSO, and diluted to a double volume with a buffer attached to a drug discovery system to prepare a sample for the assay; 0.025 ml), a tracer (0.025 ml), and receptors (0.2 ml) was incubated [in the case of the angiotensin II receptor subtype 1 (AT1), at room temperature for 3 hours, and in the case of the subtype 2 (AT2), at 37° C. for 1 hour]. Then, the reaction mixture was filtered with suction (a GF/C filter was used in AT1, and a GF/B filter was used in AT2). The filter papers after filtration with suction (the tracer bound to the receptors) were counted by a γ-well counter (ARC-500, Aloka). The non-specific bindings were measured by repeating the above method, except that a large excess amount of a displacer was added. The specific binding of the drug in the given concentration was calculated by subtracting the non-specific binding from the total binding, respectively.
tracer: ^3 H-angiotensin II

For data set [2], the system named is kidney disease model rats. Put plainly: Action to kidney diseases, renal function indicatory values. The format is in vivo, Sprague-Dawley female rats. The following applies: for Creatinine clearance / blood urea nitrogen value / serum creatinine value / Creatinine / Blood urea nitrogen: 20 mg/kg/day, two weeks; for Creatinine / Blood urea nitrogen: serum; for Creatinine: control 2.0; for Blood urea nitrogen: control 100; for effects on renal function compared with reference substance: vs DuP753. How it is done: The kidney disease model rats were prepared by a ligature of branches of renal artery in accordance with a conventional method. Namely, the left hilum renalis of Sprague-Dawley female rats was exposed under anesthesia, and one of four secondary branches of the renal artery was left unligated, while the remaining three branches were ligated, respectively. After a week, the hilum renalis (artery, vein, and ureter) of the right kidney were further ligated to thereby prepare rats whose renal function was lowered to approximately 1/8 of the normal function. Each group consisted of eight rats. The drugs to be tested (20 mg/kg) were administered to each administering group, and only water was administered to a control group. Two days after the administration, the systolic blood pressure was measured by the tail cuff method using a blood pressure measuring apparatus (UR^5000; Ueda).
In this Example, an action to kidney diseases was evaluated on the basis of a renal function indicatory value.
Fifteen groups (8 rats per group) were prepared in a manner such that there was no major difference between the groups in the serum creatinine value and the blood urea nitrogen value indicating renal function. The rats in each group were allowed to freely take up food and water. […] To the rats in the control group, only water was forcibly orally administered every day. After two weeks, 0.2 ml of blood was collected from the carotid artery of the rats under anesthesia, and centrifuged to obtain serum. Using 25 μl of the serum, the serum creatinine (Scr) was measured by a creatinine analytical instrument (Beckman). Using 10 μl of the serum, the blood urea nitrogen (BUN) was measured by a BUN analytical instrument (Beckman). The creatinine clearance was evaluated as follows:
After the serum creatinine measurement, rats were placed in urinary metabolic cages for 24 hours to collect urine. A urinary creatine concentration (Ucr) was measured by a creatinine analytical instrument, and a total volume of urination (Uvol) was also measured. The creatinine clearance (CCr) was calculated by the following formula: [formula]
In the above formula, the unit of "Ucr" and "Scr" is "mg/ml" and the unit of "Uvol" is "ml".

The test system of the next data set is SHR rats. Put plainly: Action on weight of heart in SHR rats. The format is in vivo. The following applies: 20 weeks; for Relative weight ratio / Heart weight / Blood pressure / Body weight: 20 mg/kg oral in drinking solution, average±standard deviation; for Relative weight ratio: control 0.338 ± 0.012; for Heart weight: control 1.430 ± 0.082; for Blood pressure: control 224 ± 49; for Body weight: control 423 ± 17; for heart weight based on hypercardia / lowering of blood pressure / myocardiopathy: 20 mg/kg. How it is done: In this Example, an action on a weight of a heart was evaluated. More particularly, 21-week-old SHR rats were divided into a control group (8 rats) and a test group (7 rats). The rats in the test group were allowed to freely drink a solution prepared by dissolving 2-ethoxy-1-[[4'-(2"-N,N-dimethylamino-ethoxycarbonyl)phenyl]methyl]-1H-benzimidazole-6-carboxylic acid morpholide (Compound No. 13) prepared in Example 6 or 2-ethoxy-1-[[4'-(2'-morpholinoethoxycarbonyl)-phenyl]methyl]-1H-benzimidazole-6-carboxylic acid piperidinamide (Compound No. 57) prepared in Example 28 for 20 weeks (20 mg/kg). After the oral administration was finished, the heart was taken, and the weight of the heart was measured.

For `CCOc1nc2ccc(C(=O)N3CCOCC3)cc2n1Cc1ccc(C(=O)OCCN(C)C)cc1` [Compound No. 13, 2-ethoxy-1-[[4'-(2"-N,N-dimethylaminoethoxycarbonyl)phenyl]methyl]-1H-benzimidazole-6-carboxylic acid morpholide], the “Number of deaths/number of survivals” value in the data set on ICR female mice (500 mg/kg single oral, deaths observed for 6 days) is reported as 0/5. Besides, the “inhibitory effect / binding activity / antagonism at angiotensin II receptor” value in data set [1] is recorded as “do not substantially exhibit a conventional angiotensin II receptor antagonism”. Besides, the Creatinine clearance in data set [2] (control 0.22) worked out at 0.35 mL/min. Besides, in data set [2] (vs control), the “Creatinine clearance” value is “clearly improved”, the “blood urea nitrogen value” is “clearly became lower values” and the “serum creatinine value” was “clearly became lower values”. In addition, in data set [2], the Creatinine came to 1.5 mg/dL, the Blood urea nitrogen turned out to be 75 mg/dL and the “effects on renal function compared with reference substance” value is “comparable to those of the reference substance”. Further, in the data set on SHR rats, the Relative weight ratio is on record as 0.328 ± 0.007%, the Heart weight amounted to 1.392 ± 0.034 g, the Blood pressure worked out at 232 ± 12 mmHg and the Body weight was found to be 424 g. For the same molecule, in the data set with SHR rats, the “heart weight based on hypercardia” value is recorded as “significantly reduced”, the “lowering of blood pressure” value was “without inducing a lowering of blood pressure” and the “myocardiopathy” value is recorded as “suppresses myocardiopathy”.

For the molecule `CCOc1nc2ccc(C(=O)N3CCCCC3)cc2n1Cc1ccc(C(=O)OCCN2CCOCC2)cc1` [Compound No. 57, 2-ethoxy-1-[[4'-(2"-morpholinoethoxycarbonyl)phenyl]methyl]-1H-benzimidazole-6-carboxylic acid piperidinamide], the “Number of deaths/number of survivals” value with ICR female mice (mouse, in vivo) is listed as 0/5. Besides, in data set [1], the “inhibitory effect / binding activity / antagonism at angiotensin II receptor” value is recorded as “do not substantially exhibit a conventional angiotensin II receptor antagonism”. In data set [2] (control 0.22), this molecule returned a Creatinine clearance of 0.33 mL/min. In data set [2] (vs control), the “Creatinine clearance” value was “clearly improved”, the “blood urea nitrogen value” was “clearly became lower values” and the “serum creatinine value” is “clearly became lower values”. Also, in data set [2], the Creatinine amounted to 1.5 mg/dL, the Blood urea nitrogen was 72 mg/dL and the “effects on renal function compared with reference substance” value was “comparable to those of the reference substance”. Also, in the data set on SHR rats, the Relative weight ratio is 0.324 ± 0.012%, the Heart weight worked out at 1.390 ± 0.077 g, the Blood pressure is listed as 207 ± 14 mmHg and the Body weight is listed as 429 g. Further, in the data set on SHR rats, the “heart weight based on hypercardia” value was “significantly reduced”, the “lowering of blood pressure” value is on record as “without inducing a lowering of blood pressure” and the “myocardiopathy” value is on record as “suppresses myocardiopathy”.
